Measurements published in PubChem BioAssay AID720666 (NMMLSC, 2013).
The source made the active and inactive calls.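 Rule for the calls: active = over 50% inhibition of PKC substrate or ERK kinase phosphorylation; inactive = the rest.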

These compounds were tested on TALL-104 cells, PKC substrate phosphorylation, flow cytometry (assay: blockers of stimulated PKC activity in TALL-104 – TALL-104 cells, flow cytometry, CherryPick01, mechanism study for lytic granule exocytosis inhibitor project, late-stage follow-up (AID 720666)). Conditions: at 30 µM; stronger effect = higher value.

| Structure (SMILES) | inhibition |
| --- | --- |
| CC1=C(C)CS(=O)N(S(=O)(=O)c2ccc(Cl)cc2)C1 (configuration not stated) | -41.1% (inactive) |
| CC(C)(c1ccccc1)c1ccc(OCC(O)CNC2CCN(Cc3ccccc3)CC2)cc1 (configuration not stated) | -98.8% (inactive) |
| COc1ccccc1CNc1nc(NCc2ccc(C(C)C)cc2)c2sccc2n1 | -50.7% (inactive) |
| CCCCC[C@@H](C)N1C[C@@H](COCc2ccccc2)Oc2cc(N3CC[C@H](N(C)C)C3)ccc2S1(=O)=O | -45.9% (inactive) |
| O=C(CN1C(=O)/C(=C\c2cccc(Br)c2)Oc2ccccc21)NCCCN1CCOCC1 | 6.3% (inactive) |
| O=C(Cn1sc2ccccc2c1=O)NC12CC3CC(CC(C3)C1)C2 | -7.9% (inactive) |
| O=C1CC(Sc2nnnn2-c2ccccc2)C(=O)N1c1cccc(Cl)c1 (configuration not stated) | -30.8% (inactive) |
| COc1ccc(N2C(=O)CC(Sc3nnc(-c4ccccc4)o3)C2=O)cc1 (configuration not stated) | 1.3% (inactive) |
| CN(C)CCNC(=O)c1ccc(-c2cn3c(-c4ccc(Oc5ccccc5)cc4)cnc3cn2)cc1 | 5.3% (inactive) |
| CCCCC[C@@H](C)N1C[C@@H](COCc2ccccc2)Oc2cc(N3CC[C@@H](N(C)C)C3)ccc2S1(=O)=O | -3.7% (inactive) |
| CCCCC[C@@H](C)N1C[C@H](COCc2ccccc2)Oc2cc(N3CC[C@@H](N(C)C)C3)ccc2S1(=O)=O | -58.8% (inactive) |
| CCOC(=O)c1c(NC(=O)COc2ccccc2OCC)sc2c1CC(C)(C)NC2(C)C | -9.9% (inactive) |
| O=c1c2ccc(F)cc2sn1-c1ccccc1 | -40.1% (inactive) |
| COc1ccc(-c2cc(NC=O)c3ncc(-c4ccccc4)n3c2)cc1OC | -38.6% (inactive) |
| N#Cc1c(Nc2ccccc2Cl)s[nH]c1=O | -74.8% (inactive) |
| COc1ccc(-c2cc(NC=O)c3ncc(-c4cccc(OC)c4)n3c2)cc1 | -43.6% (inactive) |
| Cc1ccc(Nc2nc(NCc3ccco3)c3ccccc3n2)cc1 | -25.2% (inactive) |
| CCN(CC)CCCNc1ccc(-c2nnc(-c3ccc(OCC(C)C)cc3)o2)cn1 | -94.2% (inactive) |
| CC1=NOC(=O)/C1=C/c1ccc(-c2ccc(Cl)cc2)o1 | -44% (inactive) |
| O=c1c2ccccc2sn1-c1ccccc1 | -24.9% (inactive) |
| CC1COCC(C)N1C1=C(Cl)C(=O)c2ccccc2C1=O (configuration not stated) | -212% (inactive) |
| O=C(Cn1sc2ccccc2c1=O)Nc1ccc(F)cc1 | -10.3% (inactive) |
| COC(=O)c1c(NC(=O)c2nc3ccccc3s2)sc2c1CC(C)(C)NC2(C)C | -30.7% (inactive) |
| O=CNc1cc(-c2ccsc2)cn2c(-c3ccccc3)cnc12 | -35.4% (inactive) |
| Cc1ccc(S(=O)(=O)n2ccc3c(OCCOCCNCc4ccc(F)cc4)cccc32)cc1 | -25.9% (inactive) |
| COc1ccc(-n2sc3ccccc3c2=O)cc1 | 0% (inactive) |
| Cc1cc(N2CCN(c3nc(-c4ccc([N+](=O)[O-])cc4)cs3)CC2)c2ccccc2n1 | -81.1% (inactive) |
